Tested on: patients with elevated triglyceride levels on statin therapy
Test: REDUCE-IT trial: safety (treatment-emergent adverse events, bleeding, atrial fibrillation/flutter)
[1] = TEAE by preferred term, Safety population, N = 4089
[2] = gastrointestinal TEAEs, Safety population, N = 4089
[3] = serious bleeding TEAE by preferred term, N = 4089
[4] = serious bleeding TEAE, Safety population, N = 4089

Protocol: Specification of Variables and Procedures: Safety assessments included adverse events, clinical laboratory measurements (chemistry, hematology), 12-lead ECGs, vital signs (systolic and diastolic blood pressure, heart rate, respiratory rate, and body temperature), weight, waist circumference, and physical examinations as per Study Procedures in Table 1. […] All laboratory test results were evaluated by the investigator as to their clinical significance. Any observations at physical examinations or laboratory values considered by the investigator to be clinically significant were considered an adverse event.
An adverse event can therefore be any unfavorable and/or unintended sign (including an abnormal laboratory finding), symptom, or disease temporally associated with the use of an investigational medication product, whether or not related to the investigational medication product. All adverse events, including observed or volunteered problems, complaints, or symptoms, were recorded on the appropriate CRF. Each adverse event was evaluated for duration, intensity, and causal relationship with the study medication or other factors.
Serious Adverse Events: A serious adverse event (SAE) is defined as an adverse event that meets any of the following criteria: • Results in death; • Is life-threatening—The term “life-threatening” in the definition of “serious” refers to an event in which the patient was at risk of death at the time of the event. […] Important medical events that may not result in death, be life threatening, or require hospitalization were considered an SAE when, based upon appropriate medical judgment, they may have jeopardized the patient and may have required medical or surgical intervention to prevent one of the outcomes listed above.
Adverse Events of Special Interest: Bleeding-related adverse events, glucose control (fasting blood glucose and HbA1c), and indicators of hepatic disorders (e.g., ALT or AST increases >3×ULN, total bilirubin increases of ≥2×ULN) were summarized separately and compared between treatment groups.
Analysis of Safety: All analyses of safety were conducted on the safety population, which was defined as all randomized patients. The safety assessment was based on the frequency of adverse events, physical exams, vital signs and safety laboratory tests. AEs with new onset during the study between the initiation of study drug and 30 days after the last dose of study drug for each patient was considered treatment-emergent (TEAEs). This included any AE with onset prior to initiation of study drug and increased severity after the treatment initiation.
This included overall incidence rates (regardless of severity and relationship to study drug), and incidence rates for moderate or severe adverse events. A summary of SAEs and adverse events leading to early discontinuation (for ≥30 days) were presented through data listings. Patients who restarted study drug were included in the summary of AEs leading to discontinuation. Safety laboratory tests and vital signs were summarized by post-treatment change from baseline for each of the parameters using descriptive statistics by treatment group. Those patients with significant laboratory abnormalities were identified in data listings. Additional safety parameters were summarized in data listings.

Structure (SMILES): CC/C=C\C/C=C\C/C=C\C/C=C\C/C=C\CCCC(=O)OCC [icosapent ethyl, eicosapentaenoic acid ethyl ester]
- Pneumonia, number of patients with serious treatment-emergent adverse event (N = 4089): 105
- Pneumonia, patients with serious treatment-emergent adverse event (N = 4089): 2.6%
- Serious TEAE Leading to Death, % of patients (Safety population, N = 4089): (2.3%)
- Serious TEAE Leading to Death, number of patients (Safety population, N = 4089): 94
- Serious TEAE Leading to Withdrawal of Study Drug, % of patients (Safety population, N = 4089): (2.2%)
- Serious TEAE Leading to Withdrawal of Study Drug, number of patients (Safety population, N = 4089): 88
- Serious TEAE, % of patients (Safety population, N = 4089): (30.6%)
- Serious TEAE, number of patients (Safety population, N = 4089): 1252
- Subjects with at Least One TEAE, % of patients (Safety population, N = 4089): (81.8%)
- Subjects with at Least One TEAE, number of patients (Safety population, N = 4089): 3343
- TEAE Leading to Withdrawal of Study Drug, % of patients (Safety population, N = 4089): (7.9%)
- TEAE Leading to Withdrawal of Study Drug, number of patients (Safety population, N = 4089): 321
- Anemia, % of patients [1]: 4.7%
- Anemia, number of patients [1]: 191
- Angina pectoris, % of patients [1]: 4.9%
- Angina pectoris, number of patients [1]: 200
- Arthralgia, % of patients [1]: 7.7%
- Arthralgia, number of patients [1]: 313
- Atrial fibrillation, % of patients [1]: 5.3%
- Atrial fibrillation, number of patients [1]: 215
- Back pain, % of patients [1]: 8.2%
- Back pain, number of patients [1]: 335
- Bronchitis, % of patients [1]: 7.5%
- Bronchitis, number of patients [1]: 306
- Cataract, % of patients [1]: 5.7%
- Cataract, number of patients [1]: 233
- Chest pain, % of patients [1]: 6.7%
- Chest pain, number of patients [1]: 273
- Constipation, % of patients [1]: 5.4%
- Constipation, number of patients [1]: 221
- Cough, % of patients [1]: 5.9%
- Cough, number of patients [1]: 241
- Diarrhea, % of patients [1]: 9.0%
- Diarrhea, number of patients [1]: 367
- Dizziness, % of patients [1]: 5.7%
- Dizziness, number of patients [1]: 235
- Dyspnea, % of patients [1]: 6.2%
- Dyspnea, number of patients [1]: 254
- Fatigue, % of patients [1]: 5.6%
- Fatigue, number of patients [1]: 228
- Hypertension, % of patients [1]: 7.8%
- Hypertension, number of patients [1]: 320
- Influenza, % of patients [1]: 6.4%
- Influenza, number of patients [1]: 263
- Nasopharyngitis, % of patients [1]: 7.7%
- Nasopharyngitis, number of patients [1]: 314
- Osteoarthritis, % of patients [1]: 5.9%
- Osteoarthritis, number of patients [1]: 241
- Pain in extremity, % of patients [1]: 5.7%
- Pain in extremity, number of patients [1]: 235
- Peripheral edema, % of patients [1]: 6.5%
- Peripheral edema, number of patients [1]: 267
- Pneumonia, % of patients [1]: 6.4%
- Pneumonia, number of patients [1]: 263
- Upper respiratory tract infection, % of patients [1]: 7.6%
- Upper respiratory tract infection, number of patients [1]: 312
- Urinary tract infection, % of patients [1]: 6.2%
- Urinary tract infection, number of patients [1]: 253
- Gastroesophageal Reflux Disease, % of patients [2]: 3.0%
- Gastroesophageal Reflux Disease, number of patients [2]: 124
- Gastrointestinal disorders (primary system organ class), % of patients [2]: 33.0%
- Gastrointestinal disorders (primary system organ class), number of patients [2]: 1350
- Nausea, % of patients [2]: 4.6%
- Nausea, number of patients [2]: 190
- anemia, adverse event rate (in vivo): 4.7%
- atrial fibrillation or flutter requiring hospitalization (adjudicated tertiary endpoint), rate (in vivo): 3.1%
- atrial fibrillation, adverse event rate (in vivo): 5.3%
- diarrhea, adverse event rate (in vivo): 9%
- gastrointestinal adverse events, rate (in vivo): 33.0%
- gastrointestinal bleeding (serious), rate (in vivo): 1.5%
- new or unexpected important adverse effects in the safety population (in vivo): no new or unexpected important adverse effects
- overall adverse event rates compared with placebo (in vivo): similar
- peripheral edema, adverse event rate (in vivo): 6.5%
- serious central nervous system bleeding, rate (in vivo): 0.3%
- tolerability (in vivo): well tolerated
- treatment-emergent serious adverse events for bleeding, rate (in vivo): 2.7%
- rates of adverse events or serious adverse events leading to withdrawal of study drug vs placebo (in vivo, listed as AMR101): no significant differences
- Aortic Aneurysm Rupture, % of patients [3]: (0.0%)
- Aortic Aneurysm Rupture, number of patients [3]: 1
- Brain Contusion, % of patients [3]: (0.0%)
- Brain Contusion, number of patients [3]: 0
- Catheter Site Hemorrhage, % of patients [3]: (0.0%)
- Catheter Site Hemorrhage, number of patients [3]: 0
- Cerebral Hemorrhage, % of patients [3]: (0.0%)
- Cerebral Hemorrhage, number of patients [3]: 0
- Cystitis Hemorrhagic, % of patients [3]: (0.0%)
- Cystitis Hemorrhagic, number of patients [3]: 2
- Diverticulitis Intestinal Hemorrhagic, % of patients [3]: (0.0%)
- Diverticulitis Intestinal Hemorrhagic, number of patients [3]: 0
- Diverticulum Intestinal Hemorrhagic, % of patients [3]: (0.1%)
- Diverticulum Intestinal Hemorrhagic, number of patients [3]: 3
- Duodenal Ulcer Hemorrhage, % of patients [3]: (0.0%)
- Duodenal Ulcer Hemorrhage, number of patients [3]: 2
- Ecchymosis, % of patients [3]: (0.0%)
- Ecchymosis, number of patients [3]: 1
- Epistaxis, % of patients [3]: (0.2%)
- Epistaxis, number of patients [3]: 7
- Esophageal Hemorrhage, % of patients [3]: (0.0%)
- Esophageal Hemorrhage, number of patients [3]: 0
- Extravasation Blood, % of patients [3]: (0.0%)
- Extravasation Blood, number of patients [3]: 1
- Gastric Hemorrhage, % of patients [3]: (0.0%)
- Gastric Hemorrhage, number of patients [3]: 1
- Gastric Ulcer Hemorrhage, % of patients [3]: (0.1%)
- Gastric Ulcer Hemorrhage, number of patients [3]: 3
- Gastrointestinal Angiodysplasia Hemorrhagic, % of patients [3]: (0.0%)
- Gastrointestinal Angiodysplasia Hemorrhagic, number of patients [3]: 1
- Gastrointestinal Hemorrhage, % of patients [3]: (0.6%)
- Gastrointestinal Hemorrhage, number of patients [3]: 26
- Genital Hemorrhage, % of patients [3]: (0.0%)
- Genital Hemorrhage, number of patients [3]: 1
- Hemarthrosis, % of patients [3]: (0.0%)
- Hemarthrosis, number of patients [3]: 0
- Hematemesis, % of patients [3]: (0.1%)
- Hematemesis, number of patients [3]: 3
- Hematochezia, % of patients [3]: (0.0%)
- Hematochezia, number of patients [3]: 1
- Hematoma, % of patients [3]: (0.0%)
- Hematoma, number of patients [3]: 1
- Hematuria, % of patients [3]: (0.2%)
- Hematuria, number of patients [3]: 8
- Hemoptysis, % of patients [3]: (0.0%)
- Hemoptysis, number of patients [3]: 1
- Hemorrhagic Anemia, % of patients [3]: (0.1%)
- Hemorrhagic Anemia, number of patients [3]: 4
- Hemorrhagic Duodenitis, % of patients [3]: (0.0%)
- Hemorrhagic Duodenitis, number of patients [3]: 0
- Hemorrhagic Transformation Stroke, % of patients [3]: (0.0%)
- Hemorrhagic Transformation Stroke, number of patients [3]: 1
- Hemorrhoidal Hemorrhage, % of patients [3]: (0.1%)
- Hemorrhoidal Hemorrhage, number of patients [3]: 3
- Hemothorax, % of patients [3]: (0.0%)
- Hemothorax, number of patients [3]: 1
- Immune Thrombocytopenic Purpura, % of patients [3]: (0.0%)
- Immune Thrombocytopenic Purpura, number of patients [3]: 0
- Intra-Abdominal Hemorrhage, % of patients [3]: (0.0%)
- Intra-Abdominal Hemorrhage, number of patients [3]: 1
- Intracranial Hemorrhage, % of patients [3]: (0.0%)
- Intracranial Hemorrhage, number of patients [3]: 0
- Large Intestinal Hemorrhage, % of patients [3]: (0.0%)
- Large Intestinal Hemorrhage, number of patients [3]: 1
- Lower Gastrointestinal Hemorrhage, % of patients [3]: (0.1%)
- Lower Gastrointestinal Hemorrhage, number of patients [3]: 5
- Mallory-Weiss Syndrome, % of patients [3]: (0.0%)
- Mallory-Weiss Syndrome, number of patients [3]: 1
- Melaena, % of patients [3]: (0.1%)
- Melaena, number of patients [3]: 3
- Menorrhagia, % of patients [3]: (0.0%)
- Menorrhagia, number of patients [3]: 1
- Mouth Hemorrhage, % of patients [3]: (0.0%)
- Mouth Hemorrhage, number of patients [3]: 0
- Pancreatitis Hemorrhagic, % of patients [3]: (0.0%)
- Pancreatitis Hemorrhagic, number of patients [3]: 1
- Peptic Ulcer Hemorrhage, % of patients [3]: (0.0%)
- Peptic Ulcer Hemorrhage, number of patients [3]: 1
- Pericardial Hemorrhage, % of patients [3]: (0.0%)
- Pericardial Hemorrhage, number of patients [3]: 0
- Post Procedural Hematoma, % of patients [3]: (0.0%)
- Post Procedural Hematoma, number of patients [3]: 1
- Post Procedural Hematuria, % of patients [3]: (0.0%)
- Post Procedural Hematuria, number of patients [3]: 0
- Post Procedural Hemorrhage, % of patients [3]: (0.1%)
- Post Procedural Hemorrhage, number of patients [3]: 5
- Rectal Hemorrhage, % of patients [3]: (0.2%)
- Rectal Hemorrhage, number of patients [3]: 10
- Renal Hemorrhage, % of patients [3]: (0.0%)
- Renal Hemorrhage, number of patients [3]: 0
- Retinal Hemorrhage, % of patients [3]: (0.0%)
- Retinal Hemorrhage, number of patients [3]: 1
- Retroperitoneal Hematoma, % of patients [3]: (0.0%)
- Retroperitoneal Hematoma, number of patients [3]: 0
- Retroperitoneal Hemorrhage, % of patients [3]: (0.0%)
- Retroperitoneal Hemorrhage, number of patients [3]: 1
- Shock Hemorrhagic, % of patients [3]: (0.0%)
- Shock Hemorrhagic, number of patients [3]: 2
- Subarachnoid Hemorrhage, % of patients [3]: (0.0%)
- Subarachnoid Hemorrhage, number of patients [3]: 2
- Subdural Hematoma, % of patients [3]: (0.2%)
- Subdural Hematoma, number of patients [3]: 9
- Subdural Hemorrhage, % of patients [3]: (0.0%)
- Subdural Hemorrhage, number of patients [3]: 2
- Traumatic Hematoma, % of patients [3]: (0.0%)
- Traumatic Hematoma, number of patients [3]: 2
- Traumatic Intracranial Hemorrhage, % of patients [3]: (0.0%)
- Traumatic Intracranial Hemorrhage, number of patients [3]: 0
- Ulcer Hemorrhage, % of patients [3]: (0.0%)
- Ulcer Hemorrhage, number of patients [3]: 1
- Upper Gastrointestinal Hemorrhage, % of patients [3]: (0.1%)
- Upper Gastrointestinal Hemorrhage, number of patients [3]: 3
- Urinary Bladder Hemorrhage, % of patients [3]: (0.0%)
- Urinary Bladder Hemorrhage, number of patients [3]: 1
- Bleeding related disorders, % of patients [4]: (2.7%)
- Bleeding related disorders, number of patients [4]: 111
- Central nervous system bleeding, % of patients [4]: (0.3%)
- Central nervous system bleeding, number of patients [4]: 14
- Gastrointestinal bleeding, % of patients [4]: (1.5%)
- Gastrointestinal bleeding, number of patients [4]: 62
- Other bleeding, % of patients [4]: (1.0%)
- Other bleeding, number of patients [4]: 41
